ChEMBL document CHEMBL3046925, “,-Dibromoacetophenones mediated synthesis of some new 7H-7-alkoxy-3-alkyl/phenyl-6-aryl-s-triazolo[3,4-b][1,3,4]thiadiazines and their antimicrobial evaluation” (2012)
Converted amounts (≈) assume the structure as drawn. The source made the active and inactive calls. The calls are words filed in the database; no cut-off is given here.

How the values were obtained:
Escherichia coli = assay: Antimicrobial activity against Escherichia coli MTCC 1652 at 2 mg/ml after 24 hr by agar well diffusion method; type: functional, organism-based
Staphylococcus aureus [1] = assay: Antimicrobial activity against Staphylococcus aureus MTCC 96 after 24 hr by two-fold serial dilution method; type: functional; details: MTCC 96, 24 h
Bacillus subtilis [2] = assay: microbe, parasite or virus in culture; type: functional; details: MTCC 121, 24 h, read-out: DIZ
Description: (§1) Antimicrobial activity against Bacillus subtilis MTCC 121 at 2 mg/ml after 24 hr by agar well diffusion method

Pseudomonas aeruginosa = assay: Antimicrobial activity against Pseudomonas aeruginosa MTCC 741 at 2 mg/ml after 24 hr by agar well diffusion method; type: functional, organism-based
Saccharomyces cerevisiae [3] = assay: Antimicrobial activity against Saccharomyces cerevisiae MTCC 170 after 24 hr by two-fold serial dilution method; type: functional
Bacillus subtilis [4] = assay: microbe, parasite or virus in culture; type: functional; details: MTCC 121, 24 h
Description: (§2) Antimicrobial activity against Bacillus subtilis MTCC 121 at 2 mg/ml after 24 hr by two-fold serial dilution method

Staphylococcus aureus [5] = assay: Antimicrobial activity against Staphylococcus aureus MTCC 96 at 2 mg/ml after 24 hr by agar well diffusion method; type: functional; details: MTCC 96, 24 h, read-out: DIZ
Candida albicans [6] = assay: Antimicrobial activity against Candida albicans MTCC 227 at 2 mg/ml by two-fold serial dilution method; type: functional
Saccharomyces cerevisiae [7] = assay: Antimicrobial activity against Saccharomyces cerevisiae MTCC 170 at 2 mg/ml after 24 hr by agar well diffusion method; type: functional; details: for zone of inhibition at 2000 µg/mL: MTCC 170, 24 h, read-out: DIZ
Candida albicans [8] = assay: Antimicrobial activity against Candida albicans MTCC 227 at 2 mg/ml by agar well diffusion method; type: functional; details: for zone of inhibition at 2000 µg/mL: read-out: DIZ
Bacillus subtilis [9] = details: MTCC 121
Description: as §1

Staphylococcus aureus [10] = details: MTCC 96
Staphylococcus aureus [11] = details: MTCC 96; remark: listed apart in the source
Bacillus subtilis [12] = details: MTCC 121; remark: listed apart in the source
Description: as §2

| Compound | Activity (Escherichia coli) | MIC (Staphylococcus aureus [1]) [µg/mL] | zone of inhibition at 2000 µg/mL (Bacillus subtilis [2]) [mm] | Activity (Pseudomonas aeruginosa) | MIC (Saccharomyces cerevisiae [3]; MTCC 170, 24 h) [µg/mL] | MIC (Bacillus subtilis [4]) [µg/mL] | zone of inhibition at 2000 µg/mL (Staphylococcus aureus [5]) [mm] | MIC (Candida albicans [6]) | zone of inhibition at 2000 µg/mL (Saccharomyces cerevisiae [7]) [mm] | zone of inhibition at 2000 µg/mL (Candida albicans [8]) [mm] | MIC (Saccharomyces cerevisiae [3]) | diameter of the inhibition zone (DIZ) (Saccharomyces cerevisiae [7]) | diameter of the inhibition zone (DIZ) (Candida albicans [8]) | DIZ (Bacillus subtilis [9]) | MIC (Staphylococcus aureus [10]) | DIZ (Staphylococcus aureus [11]) | MIC (Bacillus subtilis [12]) |
| --- | --- | --- | --- | --- | --- | --- | --- | --- | --- | --- | --- | --- | --- | --- | --- | --- | --- |
| COC1Sc2nncn2N=C1c1ccccc1 (stereo not drawn) | inactive | 64 (≈ 260 µM) | 18.6 | inactive | 128 (≈ 520 µM) | 64 (≈ 260 µM) | 19.6 | 128 µg/mL (≈ 520 µM) | 13.6 | 13.3 |  |  |  |  |  |  |  |
| CCCOC1Sc2nncn2N=C1c1ccccc1 (stereo not drawn) | inactive | 128 (≈ 467 µM) | 18.3 | inactive |  | 64 (≈ 233 µM) | 15.6 | inactive |  |  | inactive | inactive | inactive |  |  |  |  |
| CCCOC1Sc2nnc(CCC)n2N=C1c1ccccc1 (stereo not drawn) | inactive | 256 (≈ 809 µM) | 16.3 | inactive | 64 (≈ 202 µM) | 128 (≈ 405 µM) | 13.6 | inactive | 15.3 |  |  |  | inactive |  |  |  |  |
| CCCOC1Sc2nnc(CC)n2N=C1c1ccccc1 (stereo not drawn) | inactive | 256 (≈ 847 µM) | 13.6 | inactive |  | 256 (≈ 847 µM) | 14 | inactive |  |  | inactive | inactive | inactive |  |  |  |  |
| CCOC1Sc2nnc(CC)n2N=C1c1ccc(Br)cc1 (stereo not drawn) | inactive | > 256 | 13.6 | inactive |  | 256 (≈ 697 µM) | 12.3 | inactive |  |  | inactive | inactive | inactive |  |  |  |  |
| CCCc1nnc2n1N=C(c1ccccc1)C(OC)S2 (stereo not drawn) | inactive | 128 (≈ 444 µM) | 18.3 | inactive | 256 (≈ 888 µM) | 64 (≈ 222 µM) | 16 | inactive | 12.6 |  |  |  | inactive |  |  |  |  |
| CCOC1Sc2nnc(CC)n2N=C1c1ccc([N+](=O)[O-])cc1 (stereo not drawn) | inactive |  |  | inactive | 64 (≈ 192 µM) |  |  | 128 µg/mL (≈ 384 µM) | 15.6 | 13.3 |  |  |  | inactive | inactive | inactive | inactive |
| C[C@@H]1[C@H](O)[C@@H](C)/C=C/C=C/C=C/C=C/C=C/C=C/C=C/[C@H](O[C@@H]2O[C@H](C)[C@@H](O)[C@H](N)[C@@H]2O)C[C@@H]2O[C@](O)(C[C@@H](O)C[C@@H](O)[C@H](O)CC[C@@H](O)C[C@@H](O)CC(=O)O[C@H]1C)C[C@H](O)[C@H]2C(=O)O [AMPHOTERICIN B] |  |  |  |  | 100 (≈ 108 µM) |  |  | 100 µg/mL (≈ 108 µM) | 13.6 | 14.3 |  |  |  |  |  |  |  |
| CCOC1Sc2nnc(CC)n2N=C1c1ccc(F)cc1 (stereo not drawn) | inactive |  |  | inactive | 128 (≈ 418 µM) |  |  | 128 µg/mL (≈ 418 µM) | 13.6 | 13 |  |  |  | inactive | inactive | inactive | inactive |
| CCCOC1Sc2nnc(-c3ccccc3)n2N=C1c1ccccc1 (stereo not drawn) | inactive | 64 (≈ 183 µM) | 17.3 | inactive | 64 (≈ 183 µM) | 128 (≈ 365 µM) | 20.6 | inactive | 17.3 |  |  |  | inactive |  |  |  |  |
| CCCc1nnc2n1N=C(c1ccccc1)C(OCC)S2 (stereo not drawn) | inactive | 256 (≈ 847 µM) | 17.6 | inactive |  | 128 (≈ 423 µM) | 13.6 | inactive |  |  | inactive | inactive | inactive |  |  |  |  |
| CC(C)OC1Sc2nnc(-c3ccccc3)n2N=C1c1ccccc1 (stereo not drawn) | inactive | 128 (≈ 365 µM) | 15.6 | inactive | 128 (≈ 365 µM) | 256 (≈ 730 µM) | 18.3 | inactive | 13.3 |  |  |  | inactive |  |  |  |  |
| CCCOC1Sc2nnc(CC)n2N=C1c1ccc(Cl)cc1 (stereo not drawn) | inactive | > 256 | 16.3 | inactive | > 256 | 128 (≈ 380 µM) | 12.6 | inactive | 10.3 |  |  |  | inactive |  |  |  |  |
| CCOC1Sc2nnc(CC)n2N=C1c1ccccc1 (stereo not drawn) | inactive | 256 (≈ 888 µM) | 18.3 | inactive |  | 64 (≈ 222 µM) | 13.6 | inactive |  |  | inactive | inactive | inactive |  |  |  |  |
| CCc1nnc2n1N=C(c1ccccc1)C(OC)S2 (stereo not drawn) | inactive | 32 (≈ 117 µM) | 21.6 | inactive | 64 (≈ 233 µM) | 32 (≈ 117 µM) | 22.3 | 64 µg/mL (≈ 233 µM) | 15.3 | 16.3 |  |  |  |  |  |  |  |
| CCOC1Sc2nnc(-c3ccccc3)n2N=C1c1ccccc1 (stereo not drawn) | inactive | 16 (≈ 47.6 µM) | 17.6 | inactive | 32 (≈ 95.1 µM) | 128 (≈ 380 µM) | 24.3 | 64 µg/mL (≈ 190 µM) | 17.6 | 15.6 |  |  |  |  |  |  |  |
| CCOC1Sc2nnc(CC)n2N=C1c1ccc(C)cc1 (stereo not drawn) | inactive | > 256 | 17 | inactive | > 256 | 128 (≈ 423 µM) | 12.3 | inactive | 10.6 |  |  |  | inactive |  |  |  |  |
| CC(C)OC1Sc2nncn2N=C1c1ccccc1 (stereo not drawn) | inactive | 256 (≈ 933 µM) | 13.6 | inactive | 128 (≈ 467 µM) | 256 (≈ 933 µM) | 14.6 | inactive | 13.3 |  |  |  | inactive |  |  |  |  |
| CCc1nnc2n1N=C(c1ccc(Cl)cc1)C(OC)S2 (stereo not drawn) | inactive | 64 (≈ 207 µM) | 16.3 | inactive | 128 (≈ 415 µM) | 128 (≈ 415 µM) | 19.3 | 128 µg/mL (≈ 415 µM) | 12.6 | 13 |  |  |  |  |  |  |  |
| COC1Sc2nnc(-c3ccccc3)n2N=C1c1ccccc1 (stereo not drawn) | inactive | 16 (≈ 49.6 µM) | 18 | inactive | 32 (≈ 99.3 µM) | 64 (≈ 199 µM) | 25.6 | inactive | 18.6 |  |  |  | inactive |  |  |  |  |
| O=C(O)c1cn(C2CC2)c2cc(N3CCNCC3)c(F)cc2c1=O [CIPROFLOXACIN] |  | 5 (≈ 15.1 µM) | 24 |  |  | 5 (≈ 15.1 µM) | 26.6 |  |  |  |  |  |  |  |  |  |  |
| CCCc1nnc2n1N=C(c1ccccc1)C(OC(C)C)S2 (stereo not drawn) | inactive | > 256 | 14.6 | inactive |  | 256 (≈ 809 µM) | 12.3 | inactive |  |  | inactive | inactive | inactive |  |  |  |  |
| CCc1nnc2n1N=C(c1ccc(Cl)cc1)C(OC(C)C)S2 (stereo not drawn) | inactive | > 256 | 12.3 | inactive | > 256 | > 256 | 11.3 | inactive | 11.3 |  |  |  | inactive |  |  |  |  |
| CCc1nnc2n1N=C(c1ccccc1)C(OC(C)C)S2 (stereo not drawn) | inactive | 256 (≈ 847 µM) | 12.3 | inactive |  | > 256 | 13.6 | inactive |  |  | inactive | inactive | inactive |  |  |  |  |
| CCOC1Sc2nncn2N=C1c1ccccc1 (stereo not drawn) | inactive | 128 (≈ 492 µM) | 20.3 | inactive | 128 (≈ 492 µM) | 64 (≈ 246 µM) | 16.3 | inactive | 13.6 | 13.6 |  |  |  |  |  |  |  |
